Laboratory results taken from PMC3118832 (Clinical Therapeutics, 2011).
Where two headings read alike, the source gives them in different places.

Assays:
[1] = cited from earlier work; for enzymatic autoinduction: administered continuously over several days; for CL/F / Vd/F / t1/2: healthy Vietnamese male volunteers, single oral administration, mean
clinical = conditions: human, in vivo
Description: The study was conducted at HTD-HCMC. The clinical trial protocol was reviewed and supported by the internal Scientific and Ethical Committee of the HTD-HCMC and Oxford Tropical Research Ethics Committee (OxTREC 019-06), University of Oxford, Oxford, United Kingdom. The volunteers were randomly assigned to 1 of the 24 possible sequences for the 4 treatment groups (Table I). […] A fixed tablet combination of piperaquine and the reference Vietnamese formulation is not commercially available and could not be included in this trial.
Study drug was administered with 200 mL of drinking water after an overnight fast of >10 hours, according to US Food and Drug Administration (FDA) guidelines for bioequivalence studies.[30] The volunteers were asked to continue fasting for 2 hours after drug administration. Beverages containing caffeine or alcohol were not allowed on days of drug administration and blood sampling. […] Tolerability was assessed daily by the clinician during each study occasion (using an adverse-event report form) and at the follow-up visit 1 week after last study occasion (using an adverse-event report form and laboratory assessment). Adverse events were accessed by using an open question about potential health problems during the study and followed up with a questionnaire if any health problems had occurred since the last consultation.
An intravenous indwelling cannula was introduced and maintained in the antecubital vein and kept for 12 hours during blood sample collection at each study visit. A blood volume of 0.5 mL was discarded before sample collection to avoid drug dilution effects. A5-mL blood sample was drawn into lithium heparin tubes (Hong Thien My Medical Equipment Joint Stock Co., Ho Chi Minh City, Vietnam) before drug administration (predose) and at the following times after drug administration (postdose): 0.25, 0.5, 1, 1.5, 2, 2.5, 3, 4, 5, 6, 7, 8, 10, and 12 hours. The same time schedule was followed for all study visits. Saline solution (0.9% sodium chloride, 2 mL) was used to flush the lines after blood collection. Blood samples were immediately centrifuged at 3000g for 10 minutes at 20°C. Plasma were transferred to cryotubes within 10 minutes after centrifugation and stored directly at –70°C. All samples were freighted to Thailand on dry ice and analyzed by the Clinical Pharmacology Laboratory at Mahidol–Oxford Tropical Medicine Research Unit (Bangkok, Thailand).
The LC-MS/MS system consisted of an Agilent 1200 LC system including an autosampler set at 4°C and a column oven set at 40°C (Agilent Technologies Inc., Santa Clara, California) coupled with an API 5000 triple quadrupole mass spectrometer (Applied Biosystems/MDS SCIEX, Foster City, California). The lower limit of quantitation was set to 1.03 ng/mL, with a limit of detection of 0.257 ng/mL. […] Three independent quality-control samples in plasma (2.89, 40.7, and 571 ng/mL) were prepared fresh and analyzed in triplicate in each batch of extracted plasma samples. All samples were kept on ice until loaded onto the solid-phase extraction plate. The extracted samples were injected directly (5 μL) into the LC-MS/MS system.
AUC0–last values were calculated using the linear trapezoidal method for ascending concentrations and the logarithmic trapezoidal method for descending concentrations.[33] […] Cmax and Tmax concentrations were taken directly from the observed data. Vd/F and CL/F were computed individually according to standard procedures and summarized for each treatment group. […]

[2] = Tolerability: adverse-event reports and laboratory assessment at follow-up; assay type: in vivo, human
Description: Fifteen healthy Vietnamese male volunteers aged 18 to 55 years were enrolled in the study. No female subjects were enrolled to avoid potential risks of adverse effects on the fetus during early pregnancy. The study design and potential adverse drug effects were explained to all volunteers in their own language before initiation of any study-related procedures. Volunteers who provided written informed consent were considered for enrollment. Clinical and laboratory screenings were performed at the Hospital for Tropical Diseases in Ho Chi Minh City (HTD-HCMC), Vietnam, and the results evaluated before enrollment. Clinical evaluation and laboratory assessment (full hematology and biochemistry) were also performed at follow-up 1 week after the last study visit.

[3] = posttreatment (follow-up 1 week after last visit), mean (SD)

CO[C@H]1O[C@@H]2O[C@@]3(C)CC[C@H]4[C@H](C)CC[C@@H]([C@H]1C)[C@@]24OO3 [artemether]
enzymatic autoinduction [1]: marked ability for enzymatic autoinduction

C[C@@H]1CC[C@H]2[C@@H](C)C(=O)O[C@@H]3O[C@@]4(C)CC[C@@H]1[C@]32OO4 [artemisinin]
oral clearance in smokers compared with nonsmokers (clinical; po): significantly higher
CL/F (clinical; male): 121 mL/min/kg
Vd (clinical; male): 1320 L
Vd/F (clinical; male): 22.8 L/kg
half-life (clinical; male): 2.23 h
tolerability / adverse events ([2]; 15 healthy volunteers, single oral doses): no adverse events were reported
volunteers with higher aspartate aminotransferase at follow-up compared with baseline ([2]; levels still in the normal range): Six of the 15
Urea ([2]; posttreatment (follow-up 1 week after last of 4 single-dose visits), mean (SD)): 5.36 (1.5) [2.4–7.2] mM
ALT [2, 3]: 44.7 (25) [15–120] U/L
AST [2, 3]: 29.1 (16) [19–80] U/L
Albumin [2, 3]: 39.7 (4.2) [30–46] g/L
Basophils [2, 3]: 1.12 (0.49) [0.23–2.1] %
Eosinophils [2, 3]: 5.34 (3.2) [1.6–13] %
Erythrocytes [2, 3]: 5.23 (0.49) [4.6–6.1] 10^12/L
Ferritin [2, 3]: 117 (36) [69–190] μg/L
Globulin [2, 3]: 37.7 (6.5) [30–47] g/L
Glucose [2, 3]: 3.91 (0.35) [3.5–4.4] mM
Hematocrit [2, 3]: 47.7 (2.5) [45–53] %
Hemoglobin [2, 3]: 15.6 (0.78) [15–18] g/dL
Leukocytes [2, 3]: 7.62 (1.5) [5.4–10] 10^9/L
Lymphocytes [2, 3]: 32.5 (6.2) [21–43] %
Magnesium [2, 3]: 0.896 (0.17) [0.70–1.1] mM
Monocytes [2, 3]: 7.47 (1.4) [5.3–10] %
Neutrophils [2, 3]: 53.7 (6.5) [45–63] %
Reticulocytes [2, 3]: 0.700 (0.34) [0.10–1.5] %
Thrombocytes [2, 3]: 258 (59) [130–330] 10^9/L
Total bilirubin [2, 3]: 16.1 (4.0) [9.0–20] μM
Total protein [2, 3]: 77.3 (5.1) [67–82] g/L
CL/F ([1]; ref 31): 127 mL/min/kg
Vd/F ([1]; ref 31): 35.9 L/kg
t1/2 ([1]; ref 31): 2.10 h
CL/F ([1]; ref 35): 85 mL/min/kg
Vd/F ([1]; ref 35): 19.4 L/kg
t1/2 ([1]; ref 35): 2.59 h
CL/F ([1]; ref 36): 89.7 mL/min/kg
Vd/F ([1]; ref 36): 16.4 L/kg
t1/2 ([1]; ref 36): 2.51 h
bioavailability ([1]; in vivo): < 30%

C[C@H]1[C@@H](O)O[C@@H]2O[C@@]3(C)CC[C@H]4[C@H](C)CC[C@@H]1[C@@]24OO3 [dihydroartemisinin]
enzymatic autoinduction [1]: not
